Test results from patent US10980775B2, “Composition for prevention or treatment of cutaneous disorder” (XANTIAL, priority 2015, dated 2021).
Several values for one entry are separate records, joined by “and”; a condition that tells them apart may be missing. Equal entries are not always repeated.

What was measured:
[1] = test system: collagen I expression in NHDF; assay: Collagen I expression in NHDF stimulated with vitamin C+TGF-beta, in situ immunolabeling; type: cell-based, human; conditions: 50 μg/ml, 72 hours
Description: Analysis of collagen I expression in NHDF stimulated with vitamin C+TGF-beta by in situ immunolabeling. Activated HMVEC release TGF-beta which stimulates extracellular matrix synthesis by NHDF. TGF-beta stimulates the synthesis of collagen and vitamin C its release, creating experimental conditions close to TSC pathology conditions.
Normal Human Dermal Fibroblasts (NHDF) • Cell type: NHDF, used at the 8th passage • Culture conditions: 37° C., 5% CO2 • Culture medium: DMEM supplemented with L-glutamine 2 mM, Penicillin 50 U/ml—Streptomycin 50 μg/ml Fetal calf serum (FCS) 10% • Assay medium: DMEM supplemented with L-glutamine 2 mM, Penicillin 50 U/ml, Streptomycin 50 μg/ml FCS 1%. Culture and Treatment
The fibroblasts were seeded in 96-well plates and cultured in culture medium for 24 hours. The medium was then replaced with assay medium containing or not (control) the test compounds or associations in presence or not (non-stimulated control) of the association vitamin C+TGF-beta (20 μg/ml+10 ng/ml). The cells were incubated for 72 hours. All experimental conditions were performed in n=3.
After incubation, culture media were discarded and the cells were rinsed, fixed and permeabilized.
The acquisition of the images (5 photos per well) was performed using INCell Analyzer™ 1000 (GE Healthcare). Representative images for each experimental condition were included in the report.
The labeling was quantified by the measurement of the fluorescence intensity normalized to the total number of cells (Integration of numerical data with the Developer Toolbox 1.5, GE Healthcare software).

HMVEC/NHDF co-culture = assay: Pseudotube formation (branching points) in VEGF-stimulated HMVEC/NHDF co-culture, in situ immunolabeling; type: cell-based, human; conditions: VEGF 100 ng/ml, 10 days; for Number of branching points, Mean: n=3; for Number of branching points: single replicate
Description: Analysis of pseudotube formation in a HMVEC/NHDF co-culture by in situ immunolabeling.
Human Microvascular Endothelial Cells (HMVEC) • Cell type: HMVEC, used at the 7th passage
HMVEC/NHDF Co-Culture • Cell type: HMVEC+NHDF (50:50 ratio) • Culture conditions: 37° C., 5% CO2 • Co-culture medium: Endothelial Cell Basal Medium 2 (EBM-2) supplemented with Fetal calf serum (FCS) 5%, rhEGF, rhFGF, R3 IGF-1, hydrocortisone, vitamin C and gentamycin +
DMEM supplemented with L-glutamine 2 mM, Penicillin 50 U/ml, Streptomycin 50 μg/ml FCS 10%.
The HMVEC and NHDF were seeded in 96-well plates and co-cultured in co-culture medium for 24 hours. The medium was then removed and replaced by co-culture medium containing or not (control) the test compounds, associations or the reference, suramine at 5 μM, in presence or not (non-stimulated control) of the inducer, VEGF at 100 ng/ml. The cells were incubated for 10 days with treatment renewal after 72 hours of incubation. All experimental conditions were performed in n=3.
After incubation, culture media were discarded and the cells were rinsed, fixed and permeabilized. The cells were then labeled using a primary antibody anti-Von Willebrand Factor.
The formation of pseudotubes was observed using a NIKON Diaphot 300 microscope (lens×4). The images were captured (1 photo per well) using a NIKON DS-Fi1 camera and NIS-Elements 3.10 software. Then the number of branching points within the pseudotube network was counted on each image.

**Q.** What does the source list for `COc1cc2c(cc1O)CCC(C)(C)O2` [Dimethylmethoxy chromanol]?
**A.** Collagen I, Mean (basic data) ([1]; NHDF + vitamin C+TGF-beta (20 μg/ml+10 ng/ml), n=3): 274529; Collagen I branching points (basic data) ([1]; NHDF + vitamin C+TGF-beta (20 μg/ml+10 ng/ml), single replicate): 250891 and 283414 and 289284; % Stimulated control (collagen I) ([1]; NHDF + vitamin C+TGF-beta): 73%; % inhibition (collagen I expression) ([1]; NHDF + vitamin C+TGF-beta): 71%; % stimulated control (branching points) (HMVEC/NHDF co-culture; 6 μg/ml): 79%; Number of branching points, Mean (HMVEC/NHDF co-culture; 6 μg/ml): 98; Number of branching points (HMVEC/NHDF co-culture; 6 μg/ml): 83 and 104 and 109; inhibition at 6 µg/mL (HMVEC/NHDF co-culture; Homo sapiens, 240 h, 6 μg/ml): 21%

**Q.** Which results are given for `Oc1ccc(/C=C/c2cc(O)cc(O)c2)cc1` [Resveratrol, 3,5,4′-trihydroxy-trans-stilbene]?
**A.** % stimulated control (branching points) (HMVEC/NHDF co-culture; 2 μg/ml): 113%; Number of branching points, Mean (HMVEC/NHDF co-culture; 2 μg/ml): 141; Number of branching points (HMVEC/NHDF co-culture; 2 μg/ml): 139 and 157 and 126; inhibition at 2 µg/mL (HMVEC/NHDF co-culture; Homo sapiens, 240 h, 2 μg/ml): -13%

**Q.** Which results are given for `Cc1ccc(C(=O)Nc2ccc(S(=O)(=O)O)c3cc(S(=O)(=O)O)cc(S(=O)(=O)O)c23)cc1NC(=O)c1cccc(NC(=O)Nc2cccc(C(=O)Nc3cc(C(=O)Nc4ccc(S(=O)(=O)O)c5cc(S(=O)(=O)O)cc(S(=O)(=O)O)c45)ccc3C)c2)c1` [Suramine, reference compound]?
**A.** % stimulated control (branching points) (HMVEC/NHDF co-culture; 5 μM): 63%; Number of branching points, Mean (HMVEC/NHDF co-culture; 5 μM): 78; Number of branching points (HMVEC/NHDF co-culture; 5 μM): 72 and 85 and 79; inhibition at 5 µM (HMVEC/NHDF co-culture; Homo sapiens, 240 h, 5 μM): 37%
